Earlier results as cited in patent US20080249137A1, “PPAR active compounds” (priority 2005, published 2008).

Experiments:
PPARδ = molecular target: T1, PPARδ (Homo sapiens, UniProt Q03181)
T1 sequence (Q03181 1-441): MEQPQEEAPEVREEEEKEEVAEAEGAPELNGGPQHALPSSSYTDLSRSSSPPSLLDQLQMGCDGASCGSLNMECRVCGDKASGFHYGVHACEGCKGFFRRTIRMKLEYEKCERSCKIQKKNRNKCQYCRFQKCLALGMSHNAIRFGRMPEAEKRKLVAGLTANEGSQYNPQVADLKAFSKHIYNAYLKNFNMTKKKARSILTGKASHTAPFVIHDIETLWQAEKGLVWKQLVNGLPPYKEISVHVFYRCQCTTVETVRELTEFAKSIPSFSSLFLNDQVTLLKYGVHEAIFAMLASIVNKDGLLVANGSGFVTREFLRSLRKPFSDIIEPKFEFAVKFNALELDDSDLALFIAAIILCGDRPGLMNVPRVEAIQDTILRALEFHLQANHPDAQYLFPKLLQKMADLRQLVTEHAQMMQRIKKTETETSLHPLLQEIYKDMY

murine PPARα = molecular target: T2, murine PPARα (Mus musculus, UniProt P23204)
T2 sequence (P23204 1-468): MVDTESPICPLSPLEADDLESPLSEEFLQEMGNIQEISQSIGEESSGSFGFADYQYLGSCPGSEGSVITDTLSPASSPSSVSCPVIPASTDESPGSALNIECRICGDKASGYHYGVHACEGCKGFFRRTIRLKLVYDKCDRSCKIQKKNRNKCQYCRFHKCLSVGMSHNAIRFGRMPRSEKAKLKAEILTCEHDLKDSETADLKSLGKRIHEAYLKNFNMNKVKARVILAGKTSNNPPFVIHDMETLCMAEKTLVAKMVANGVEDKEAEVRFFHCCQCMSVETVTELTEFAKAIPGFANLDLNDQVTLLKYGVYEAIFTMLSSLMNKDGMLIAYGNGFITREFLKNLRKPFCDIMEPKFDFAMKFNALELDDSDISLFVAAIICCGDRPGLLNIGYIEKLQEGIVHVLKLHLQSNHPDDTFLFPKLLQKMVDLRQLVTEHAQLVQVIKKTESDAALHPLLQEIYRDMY

[1] = patients, large prospective trial

agonist selectivity for PPARδ over PPARγ (PPARδ)	activity on murine PPARα (murine PPARα)	Structure (SMILES)	reduction in cardiovascular events or death [1] [%]
approximately 30 fold	inactive	CCCc1c(OCCCOc2ccc(OCC(=O)O)cc2)ccc(C(C)=O)c1O [Compound L-165041]	–
–	–	Cc1ccc(C)c(OCCCC(C)(C)C(=O)O)c1 [gemfibrozil]	22
